Entries after “also recorded” stand apart in the source; their conditions may differ.
How the values were obtained:
[1] = molecular target: T1, SHIP1 (Homo sapiens, UniProt Q92835); assay: Fluorescence Polarization (FP) assay for SHIP1 enzymatic activity; type: biochemical; conditions: in vitro, hydrochloride
T1 sequence (Q92835 1-1189): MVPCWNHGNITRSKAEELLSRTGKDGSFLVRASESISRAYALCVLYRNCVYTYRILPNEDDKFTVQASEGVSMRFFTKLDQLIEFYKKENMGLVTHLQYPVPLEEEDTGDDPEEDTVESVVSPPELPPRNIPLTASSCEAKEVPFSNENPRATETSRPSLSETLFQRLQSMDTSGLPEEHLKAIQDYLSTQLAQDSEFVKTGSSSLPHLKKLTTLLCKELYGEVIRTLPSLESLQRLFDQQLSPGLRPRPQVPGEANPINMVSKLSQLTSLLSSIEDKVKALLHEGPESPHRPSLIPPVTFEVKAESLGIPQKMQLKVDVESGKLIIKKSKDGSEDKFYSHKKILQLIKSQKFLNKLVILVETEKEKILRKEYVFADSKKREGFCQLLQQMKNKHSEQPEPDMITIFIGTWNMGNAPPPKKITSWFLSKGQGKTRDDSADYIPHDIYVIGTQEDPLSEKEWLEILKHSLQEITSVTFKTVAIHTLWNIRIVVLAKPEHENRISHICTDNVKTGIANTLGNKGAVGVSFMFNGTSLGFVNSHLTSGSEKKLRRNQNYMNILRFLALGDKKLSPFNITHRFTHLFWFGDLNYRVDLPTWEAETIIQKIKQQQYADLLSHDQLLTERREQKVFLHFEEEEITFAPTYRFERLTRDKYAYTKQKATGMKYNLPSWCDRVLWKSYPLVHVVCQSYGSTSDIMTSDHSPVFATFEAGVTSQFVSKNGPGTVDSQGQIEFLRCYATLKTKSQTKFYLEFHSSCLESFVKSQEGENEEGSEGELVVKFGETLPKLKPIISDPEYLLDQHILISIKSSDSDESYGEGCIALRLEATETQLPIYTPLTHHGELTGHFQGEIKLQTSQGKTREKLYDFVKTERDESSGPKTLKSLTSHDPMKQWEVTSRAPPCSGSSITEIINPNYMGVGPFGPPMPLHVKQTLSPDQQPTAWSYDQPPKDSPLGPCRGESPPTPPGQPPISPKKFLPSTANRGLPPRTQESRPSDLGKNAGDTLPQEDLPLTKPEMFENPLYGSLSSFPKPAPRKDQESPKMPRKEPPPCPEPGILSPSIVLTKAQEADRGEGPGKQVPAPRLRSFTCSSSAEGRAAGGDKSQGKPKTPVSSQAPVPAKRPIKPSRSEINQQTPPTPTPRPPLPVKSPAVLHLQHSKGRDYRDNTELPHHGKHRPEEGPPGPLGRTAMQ
Excerpt: FIGS. 6A-6F: Characterizations of the soluble SHIPi compound K118. FIG. 6A: Fluorescence Polarization (FP) assay comparing SHIPi enzymatic inhibitory activity between 3AC and K118 (IC50˜13.87). In the remaining panels we show for K118 and H2O treated mice (as indicated). FIG. 6B: Representative box and whisker graph depicting serum levels of G-CSF (n=4/group); FIG. 6C: Flow cytometric analysis comparing LT-HSC (LSKFlk2−CD34−), ST-HSC (LSKFlk2−CD34+), and MPP (LSKFlk2^+CD34^+); FIG. 6D: Absolute increase in BM LT-HSC, ST-HSC, and MPP (n=5/group). Primary CRU assay illustrating global and lineage reconstitution one month post transplant; Absolute increase in repopulating units (RU). FIG. 6E: Representative contour plots for PDGFRα^+CD51^+ MSC (after excluding CD45^+, CD31^+, Lin^+ cells); FIG. 6F: Box and whiskers graph illustrating the percentage of PDGFRa^+CD51^+ MSC (n=5/group); Representative images of CFU-F assays used to measure CFU-F frequencies in BM cells of treated mice and Box and whiskers graphs indicating CFU-F frequency in treated mice. All of the above comparisons are representative of two independent experiments.
(FIG. 6A) We sought to determine if this water-soluble K118 SHIPi compound has the capacity to increase G-CSF production within the same five-day injection period as 3AC. […]

[2] = test system: MSC (CFU-F); assay: Colony forming unit (CFU-F) assay on BM cells of treated mice; type: in vivo; conditions: K118 10 mg/kg i.p. 5 days, vs H2O
Experimental: Primary whole BM cells (adherent+non-adherent) were plated in 60-mm plates (triplicates, 3×10^6 cells per plate) in CFU-F growth media: DMEM, Mesencult Serum (Stem Cell Technologies) with 1% penicillin-streptomycin-glutamine. Cells were cultured for approximately 7 days, after which cells were fixed with 70% ethanol and stained for alkaline phosphatase activity using the Leukocyte Alkaline Phosphatase Kit (Sigma) and counter-stained with neutral red (Sigma). Colonies (ALP^+ cells/colonies) were counted using the Software program “Image J” (National Institutes of Health Research Services Branch).

[3] = test system: immunoregulatory cells; assay: Preliminary oral K118 study: immunoregulatory cells; type: in vivo, wt C57BL/6 mice; conditions: K118 orally 10 mg/kg in water
Experimental: K118 was administered in water, and in wt C57BL/6 mice.

[4] = test system: PDGFRα+CD51+ MSC; assay: In vivo MSC immunophenotyping by flow cytometry; parameters: species or system mice; conditions: K118 10 mg/kg i.p. 5 days, vs H2O
Experimental: PDGFRα^+CD51^+ MSC were detected using methods and reagents as described by Iyer et al.^8 Femurs, tibias, humeri, ulnas, radii, and pelvis were dissected; the bone fragments were cleaned, cut into tiny pieces, and then crushed using a mortar and pestle. The bone chips were then washed several times in HBSS supplemented with 2% heat-inactivated FBS (HBSS/2% HI-FBS) and HBSS only, and then spun at 350×g for 5 mins. The pellet was re-suspended in 3 mg/mL type I collagenase (Worthington) and 15 μg/mL DNAase (Sigma, St. Louis, Mo.) dissolved in HBSS and incubated at 37° C. for 30 min at 110 rpm, this step was repeated twice. Following incubation, mononuclear cells were obtained using a Ficoll gradient ([…] and Histopaque-1077; Sigma, St. Louis, Mo.), and were then used for further analysis. Cells were stained with antibodies as described in Iyer et al.^8

[5] = test system: G-CSF; assay: G-CSF ELISA of serum of treated mice; type: in vivo; conditions: K118 10 mg/kg i.p. 5 days, vs H2O; hydrochloride, 10 mg/kg
Experimental: Peripheral blood was collected in serum separation microvette tubes (SARSTEDT). Tubes were kept at room temperature for 2 hrs. and then spun at 2000×g for 20 min as per manufacturers recommendation. Serum levels of G-CSF in treated mice were determined using a Mouse G-CSF Quantikine Elisa kit (R&D systems).

C[C@@]12CCC[C@H]1[C@@H]1CC[C@H]3C[C@@H](N)CC[C@]3(C)[C@H]1CC2.Cl [K118, 3β-amino-5α-androstane hydrochloride]
SHIP1 inhibitory activity compared with 3AC [1]: comparable SHIP1 inhibitory activity; also recorded: equal potency
frequency of CFU-F in BM [2]: significantly increased frequency
neutrophil numbers [3]: trend for increased
frequency of natural T regulatory cells (nTreg, CD4+CD25+FoxP3+) ([3]; mesenteric lymph node (mLN)): Significant increases
frequency of myeloid derived suppressor cells (MDSC, Gr1+Mac1+) ([3]; spleen): significant increase
frequency of natural T regulatory cells (nTreg, CD4+CD25+FoxP3+) ([3]; spleen): Significant increases
MSC numbers in BM [4]: significant expansion
G-CSF production (serum) [5]: significant increase; also recorded: super-induces
